Source: ChEMBL document CHEMBL3885881, “DrugMatrix”
Where “and” joins values, the source holds several entries; their conditions need not be identical. Equal entries are not always repeated.

Organism: Rattus norvegicus
Test: DrugMatrix - Regimen: Daily Repeat
Format: toxicity, organism-based, Sprague-Dawley
Design: regimen Daily Repeat, gender Male, age 6-8 weeks
Details: in vivo, po, route oral GAVAGE, vehicle .5 % CMC; for ABSOLUTE BASOPHIL / ABSOLUTE LYMPHOCYTE / ABSOLUTE MONOCYTE / ABSOLUTE SEGMENTED NEUTROPHIL / BASOPHIL / EOSINOPHIL / ERYTHROCYTE COUNT / HEMATOCRIT / HEMOGLOBIN / LEUKOCYTE COUNT / LYMPHOCYTE / MEAN CORPUSCULAR HEMOGLOBIN / MEAN CORPUSCULAR HEMOGLOBIN CONCENTRATION / MEAN CORPUSCULAR VOLUME / MONOCYTE / NEUTROPHIL / PLATELET COUNT / ABSOLUTE EOSINOPHIL / NUCLEATED RED BLOOD CELLS: tissue Blood; for ALANINE AMINOTRANSFERASE / ALBUMIN / ALKALINE PHOSPHATASE / ASPARTATE AMINOTRANSFERASE / BLOOD UREA NITROGEN / CARBON DIOXIDE / CHLORIDE / CHOLESTEROL / CREATINE PHOSPHOKINASE / CREATININE / GLUCOSE / LIPASE / PHOSPHORUS / POTASSIUM / SODIUM / TOTAL BILIRUBIN / TOTAL PROTEIN / URIC ACID / LACTATE DEHYDROGENASE: tissue Plasma
[1] = 0 mg/kg, 72 h, dose level Control, time 3 day
[2] = 0 mg/kg, 120 h, dose level Control, time 5 day
[3] = 11 mg/kg, 72 h, dose level Low, time 3 day
[4] = 11 mg/kg, 120 h, dose level Low, time 5 day

COc1ccc2c3c1O[C@H]1C[C@@H](O)C=C[C@@]31CCN(C)C2 [GALANTAMINE]
ABSOLUTE BASOPHIL [1]: 0 CELLS/uL | ABSOLUTE LYMPHOCYTE [1]: 15937.67 CELLS/uL and 12269.67 CELLS/uL | ABSOLUTE MONOCYTE [1]: 138.33 CELLS/uL and 160.33 CELLS/uL | ABSOLUTE SEGMENTED NEUTROPHIL [1]: 1443 CELLS/uL and 970 CELLS/uL | BASOPHIL [1]: 0% | EOSINOPHIL [1]: 0.33% and 0% | ERYTHROCYTE COUNT [1]: 5.45 x10E6/uL and 5.76 x10E6/uL | HEMATOCRIT [1]: 34.43% and 36.57% | HEMOGLOBIN [1]: 13.38 G/DL and 14.22 G/DL | LEUKOCYTE COUNT [1]: 17.57 x10E3/uL and 13.4 x10E3/uL | LYMPHOCYTE [1]: 90.33% and 91.67% | MEAN CORPUSCULAR HEMOGLOBIN [1]: 24.6 pg and 24.67 pg | MEAN CORPUSCULAR HEMOGLOBIN CONCENTRATION [1]: 38.88 G/DL and 38.85 G/DL | MEAN CORPUSCULAR VOLUME [1]: 63.27 fL and 63.52 fL | MONOCYTE [1]: 0.83% and 1.17% | NEUTROPHIL [1]: 8.5% and 7.17% | PLATELET COUNT [1]: 1298 x10E3/uL and 1250.83 x10E3/uL | ALANINE AMINOTRANSFERASE [1]: 47.67 u/L and 49.17 u/L | ALBUMIN [1]: 4.18 G/DL and 4.33 G/DL | ALKALINE PHOSPHATASE [1]: 398.5 u/L and 378.5 u/L | ASPARTATE AMINOTRANSFERASE [1]: 93.17 u/L and 82.17 u/L | BLOOD UREA NITROGEN [1]: 16 mg/dL and 15 mg/dL | CARBON DIOXIDE [1]: 29.17 mmol/L and 34.33 mmol/L | CHLORIDE [1]: 98.17 MEQ/L and 99.17 MEQ/L | CHOLESTEROL [1]: 68.83 mg/dL and 71.17 mg/dL | CREATINE PHOSPHOKINASE [1]: 467.33 u/L and 258.67 u/L | CREATININE [1]: 0.14 mg/dL and 0.18 mg/dL | GLUCOSE [1]: 151.67 mg/dL and 142.67 mg/dL | LIPASE [1]: 9.33 u/L and 9 u/L | PHOSPHORUS [1]: 11.97 mg/dL and 11.67 mg/dL | POTASSIUM [1]: 6.43 MEQ/L and 7.13 MEQ/L | SODIUM [1]: 140.68 MEQ/L and 142.22 MEQ/L | TOTAL BILIRUBIN [1]: 0.18 mg/dL | TOTAL PROTEIN [1]: 5.82 G/DL and 5.77 G/DL | URIC ACID [1]: 1.48 mg/dL and 1.55 mg/dL | ABSOLUTE BASOPHIL [2]: 0 CELLS/uL | ABSOLUTE EOSINOPHIL [2]: 31 CELLS/uL and 23.33 CELLS/uL | ABSOLUTE LYMPHOCYTE [2]: 14327.83 CELLS/uL and 14943.67 CELLS/uL | ABSOLUTE SEGMENTED NEUTROPHIL [2]: 1321.67 CELLS/uL and 1084.33 CELLS/uL | BASOPHIL [2]: 0% | EOSINOPHIL [2]: 0.17% | ERYTHROCYTE COUNT [2]: 5.79 x10E6/uL and 5.71 x10E6/uL | HEMATOCRIT [2]: 36.1% and 35.28% | HEMOGLOBIN [2]: 14.15 G/DL and 14.27 G/DL | LEUKOCYTE COUNT [2]: 15.78 x10E3/uL and 16.08 x10E3/uL | LYMPHOCYTE [2]: 90.5% and 93% | MEAN CORPUSCULAR HEMOGLOBIN [2]: 24.48 pg and 25.02 pg | MEAN CORPUSCULAR HEMOGLOBIN CONCENTRATION [2]: 39.22 G/DL and 40.43 G/DL | MEAN CORPUSCULAR VOLUME [2]: 62.4 fL and 61.82 fL | MONOCYTE [2]: 0.67% and 0.17% | NEUTROPHIL [2]: 8.67% and 6.67% | NUCLEATED RED BLOOD CELLS [2]: 0.17 /100WBC and 0.33 /100WBC | PLATELET COUNT [2]: 1211.67 x10E3/uL and 1274 x10E3/uL | ALANINE AMINOTRANSFERASE [2]: 49 u/L and 54.17 u/L | ALBUMIN [2]: 4.27 G/DL and 4.22 G/DL | ALKALINE PHOSPHATASE [2]: 356.67 u/L and 373.17 u/L | ASPARTATE AMINOTRANSFERASE [2]: 90.17 u/L and 81.83 u/L | BLOOD UREA NITROGEN [2]: 20.5 mg/dL and 16.67 mg/dL | CARBON DIOXIDE [2]: 29.17 mmol/L and 30.33 mmol/L | CHLORIDE [2]: 98 MEQ/L and 99 MEQ/L | CHOLESTEROL [2]: 69.83 mg/dL and 71 mg/dL | CREATINE PHOSPHOKINASE [2]: 312 u/L and 273.5 u/L | CREATININE [2]: 0.21 mg/dL and 0.22 mg/dL | GLUCOSE [2]: 149.83 mg/dL and 141.83 mg/dL | LACTATE DEHYDROGENASE [2]: 322 u/L and 153.67 u/L | LIPASE [2]: 10 u/L and 10.33 u/L | PHOSPHORUS [2]: 12 mg/dL and 11.38 mg/dL | POTASSIUM [2]: 6.75 MEQ/L and 7.08 MEQ/L | SODIUM [2]: 142.8 MEQ/L and 142.75 MEQ/L | TOTAL BILIRUBIN [2]: 0.17 mg/dL and 0.18 mg/dL | TOTAL PROTEIN [2]: 6.1 G/DL | URIC ACID [2]: 1.68 mg/dL and 1.67 mg/dL | ABSOLUTE BASOPHIL [3]: 0 CELLS/uL | ABSOLUTE EOSINOPHIL [3]: 71.33 CELLS/uL | ABSOLUTE LYMPHOCYTE [3]: 10973.33 CELLS/uL | ABSOLUTE MONOCYTE [3]: 201 CELLS/uL | ABSOLUTE SEGMENTED NEUTROPHIL [3]: 1221 CELLS/uL | BASOPHIL [3]: 0% | EOSINOPHIL [3]: 0.67% | ERYTHROCYTE COUNT [3]: 5.6 x10E6/uL | HEMATOCRIT [3]: 35.33% | HEMOGLOBIN [3]: 13.47 G/DL | LEUKOCYTE COUNT [3]: 12.47 x10E3/uL | LYMPHOCYTE [3]: 87.67% | MEAN CORPUSCULAR HEMOGLOBIN [3]: 24.1 pg | MEAN CORPUSCULAR HEMOGLOBIN CONCENTRATION [3]: 38.13 G/DL | MEAN CORPUSCULAR VOLUME [3]: 63.17 fL | MONOCYTE [3]: 1.67% | NEUTROPHIL [3]: 10% | NUCLEATED RED BLOOD CELLS [3]: 0 /100WBC | PLATELET COUNT [3]: 1277.67 x10E3/uL | ALANINE AMINOTRANSFERASE [3]: 46.67 u/L | ALBUMIN [3]: 4.13 G/DL | ALKALINE PHOSPHATASE [3]: 368.33 u/L | ASPARTATE AMINOTRANSFERASE [3]: 76.33 u/L | BLOOD UREA NITROGEN [3]: 17 mg/dL | CARBON DIOXIDE [3]: 29.67 mmol/L | CHLORIDE [3]: 98.33 MEQ/L | CHOLESTEROL [3]: 76.33 mg/dL | CREATINE PHOSPHOKINASE [3]: 222.67 u/L | CREATININE [3]: 0.18 mg/dL | GLUCOSE [3]: 154.33 mg/dL | LACTATE DEHYDROGENASE [3]: 192 u/L | LIPASE [3]: 9.67 u/L | PHOSPHORUS [3]: 12.47 mg/dL | POTASSIUM [3]: 6.58 MEQ/L | SODIUM [3]: 142 MEQ/L | TOTAL BILIRUBIN [3]: 0.2 mg/dL | TOTAL PROTEIN [3]: 5.83 G/DL | URIC ACID [3]: 1.5 mg/dL | ABSOLUTE BASOPHIL [4]: 0 CELLS/uL | ABSOLUTE EOSINOPHIL [4]: 0 CELLS/uL
